Test results as given in patent publication EP1429719B1, “ANTI-INFLAMMATORY DERMOCOSMETOLOGIC COMPOSITION IN PARTICULAR FOR TREATING ACNE AND SEBORRHEIC DERMATITIS” (Pierre Fabre Dermo-Cosmetique, priority 2001, dated 2003).

Test system: prostaglandine 6KF1α
Test: Production of prostaglandin 6KF1α by HaCaT human keratinocytes stimulated with calcium ionophore A23187 (ELISA)
Format: cell-based, humain
Details: 5 h culture; for PG6KF1α: n = 3
Excerpt: Conformément à la présente invention, il a été mis en évidence une synergie d'activité anti-inflammatoire du lactamide et du glycyrrhétinate de zinc et/ou du glycyrrhétinate de stéaryl et/ou de glycyrrhétinate d'ammonium. Cette synergie a été objectivée à la suite d'une évaluation sur la production de prostaglandine 6KF1α par le kératynocyte humain.
Dans cette étude, on s'est intéressé en particulier à une prostaglandine, la PG6KF1α, métabolite stable de la prostarycline, qui est un des métabolites majeurs produits par le kératinocyte stimulé, et représentatif de la modulation de la production des métabolites de l'acide arachidonique issus de la voie de la cyclo-oxygénase.
Sur ce modèle, on a évalué l'activité du glycyrrhétinate de zinc en association avec le lactamide sur la production de PG6KF1α induite chez le kératinocyte par un stimulant de la cascade de l'acide arachidonique, le ionophore calcique A23187.
On a réalisé ensuite la même étude en évaluant l'activité du stéaryl glycyrrhétinate en association avec le lactamide.
La suspension de kératinocytes humains HaCaT dans le RPMI 10% SVF est distribuée dans les plaques 6 puits (1x106 cellules/2ml/puits) et incubée pendant 16 heures à 37°C dans une atmosphère à 5% CO2. Les kératinocytes sont alors rincés avec du PBS pour éliminer les cellules non-adhérentes puis exposés aux produits à tester inclus dans du RPMI sans SVF (qui pourrait interférer dans le dosage).
Le lactamide MEA est directement solubilisé dans le RPMI sans SVF à une concentration de 1 0mg/ml.
Le glycyrrhétinate de zinc est préparé dans l'éthanol absolu à 100 mg/ml puis repris dans le RPMI sans SVF à 10 mg/ml.
Le stéaryl glycyrrhétinate est préparé dans le DMSO à […] puis repris dans le RPMI sans SVF à 10mg/ml.
Le glycyrrhétinate d'ammonium est préparé dans l'éthanol absolu à 100 mg/ml puis repris dans le RPMI sans SVF à 25 mg/ml.
Pour chaque lot, 3 puits sont réalisés. Les cellules sont incubées pendant 1 heure avec les produits à tester puis le ionophore calcique A23187, est ajouté pendant 5 heures à la concentration 5µM.
Les milieux de culture de chacun des puits sont ensuite récupérés, centrifugés à 3000 tr/mn et conservés à -80°C.
La production de prostaglandine 6KF1α pour chacun des essais est mesurée par Kit Elisa EUROMEDEX.
Les lots suivants ont été réalisés : • Lot témoin • Lot témoin stimulé A23187 5µM • Lactamide MEA 500µg/ml + A23187 5µM • Glycyrrhétinate de zinc 10 µg/ml + A23187 5µM • Lactamide MEA 500µg/ml/Glycyrrhétinate de zinc 10µg/ml + A23187 5µM • Stéaryl glycyrrhétinate 50µg/ml + A23187 5µM • Lactamide MEA 500µg/ml/Stéaryl glycyrrhétinate 50µg/ml + A23187 5µM • Glycyrrhétinate d'ammonium 25 µg/ml + A23187 5µM • Lactamide MEA 500 µg/ml/Glycyrrhétinate d'ammonium 25 µg/ml + A23187 5µM.
Les résultats sont exprimés en picogrammes de prostaglandine 6KF1α pour 1x10^6 kératinocytes et par ml de culture.
L'analyse statistique des résultats est réalisée par une analyse de variance et par le test de Dunnett.

## CCCCCCCCCCCCCCCCCCOC(=O)[C@@]1(C)CC[C@]2(C)CC[C@]3(C)C(=CC(=O)[C@@H]4[C@@]5(C)CC[C@H](O)C(C)(C)[C@@H]5CC[C@]43C)[C@@H]2C1 [Stéaryl glycyrrhétinate, stéaryl glycyrrhétinate]
Homo sapiens, Stéaryl glycyrrhétinate 50µg/ml + A23187 5µM, n = 3, read-out: % activité / Témoin A23187
  inhibition at 50 µg/mL: 31%
Stéaryl glycyrrhétinate 50µg/ml + A23187 5µM
  PG6KF1α: 79,87 ± 5,14 pg/1x10^6 kératinocytes/ml

## CC(O)C(=O)NCCO (stereo not shown) [Lactamide MEA, monoéthanolamide de l'acide lactique]
Homo sapiens, Lactamide MEA 500µg/ml + A23187 5µM, n = 3, read-out: % activité / Témoin A23187
  inhibition at 500 µg/mL: -8%
Lactamide MEA 500µg/ml + A23187 5µM, 1 h pre-incubation
  PG6KF1α: 124,87 ± 11,50 pg/1x10^6 kératinocytes/ml

## glycyrrhétinate de zinc
Glycyrrhétinate de zinc 10µg/ml + A23187 5µM
  PG6KF1α: 78,37 ± 2,55 pg/1x10^6 kératinocytes/ml

## CC1(C)[C@@H](O)CC[C@]2(C)[C@H]3C(=O)C=C4[C@@H]5C[C@@](C)(C(=O)O)CC[C@]5(C)CC[C@@]4(C)[C@]3(C)CC[C@@H]12 [Glycyrrhétinate d'ammonium, glycyrrhétinate d'ammonium]
Glycyrrhétinate d'ammonium 25µg/ml + A23187 5µM
  PG6KF1α: 80,74 ± 3,67 pg/1x10^6 kératinocytes/ml
Homo sapiens, Glycyrrhétinate d'ammonium 25µg/ml + A23187 5µM, n = 3, read-out: % activité / Témoin A23187
  inhibition at 25 µg/mL: 30%
